# Legend:
# ER (estrogen receptor) = biological target: T1, ER (estrogen receptor) (Homo sapiens, UniProt P03372); assay: Inhibition of the binding of estrogen (E) to estrogen receptor (ER), MCF-7/ERE-luciferase reporter cells; assay type: cell-based; conditions: MCF-7/ERE-luciferase cells, 0.1 nM estradiol, 24 hours, chemiluminescence; read-out: IC50 value of inhibition effect on the binding of E to ER
# T1 construct: MCF-7/ERE-luciferase monoclonal cells were selected by transfection of MCF-7; host or cells: MCF-7/ERE-luciferase (only the ERE-luciferase reporter was transfected)
# T1 sequence (P03372 1-595): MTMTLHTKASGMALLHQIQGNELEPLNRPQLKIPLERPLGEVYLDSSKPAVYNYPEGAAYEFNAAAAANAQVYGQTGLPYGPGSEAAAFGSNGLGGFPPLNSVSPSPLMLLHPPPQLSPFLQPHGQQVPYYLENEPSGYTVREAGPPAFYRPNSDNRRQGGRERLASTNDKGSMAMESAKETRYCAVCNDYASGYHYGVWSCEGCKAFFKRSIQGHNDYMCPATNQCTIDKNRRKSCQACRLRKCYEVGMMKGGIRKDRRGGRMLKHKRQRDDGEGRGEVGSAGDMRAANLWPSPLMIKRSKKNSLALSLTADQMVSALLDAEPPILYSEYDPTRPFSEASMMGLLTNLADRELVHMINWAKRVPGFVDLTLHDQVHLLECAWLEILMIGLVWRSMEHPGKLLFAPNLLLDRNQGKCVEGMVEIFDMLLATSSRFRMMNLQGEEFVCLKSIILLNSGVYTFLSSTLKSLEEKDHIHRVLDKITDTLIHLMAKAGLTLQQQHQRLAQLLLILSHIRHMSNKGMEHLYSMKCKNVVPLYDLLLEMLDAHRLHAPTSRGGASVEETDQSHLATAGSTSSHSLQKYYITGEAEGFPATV
# Outline: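 MCF-7 cells stably carrying an ERE-luciferase reporter, grown in charcoal-stripped FBS medium, were treated with compound plus 0.1 nM estradiol for 24 h at 37 °C. Luciferase chemiluminescence was then read and plotted against log compound concentration to derive IC50.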
# [1] = Pharmacokinetics assay in BALB/C nude mice after intragastrical administration; assay type: in vivo; conditions: female, mouse, po, 3 mg/kg, plasma; for Vd/F: read-out: Apparent Distribution Volume Vz/F; for AUC: read-out: Area Under Curve AUC; for CL/F: read-out: Clearance CL/F; for half-life: read-out: Half-Life t1/2 (converted); for MRT: read-out: Mean Residence Time MRT; for Cmax: read-out: Plasma Conc. Cmax
# Experimental: BALB/C nude mice were used as test animals. The drug concentration in plasma at different time points was determined by LC/MS/MS after intragastrical administration of the compounds of Examples 1, 7, 8, 10, 11, 14, 16, 39 and 42 to BALB/C nude mice. The pharmacokinetic behavior of the compounds of the compounds of the present invention was studied and evaluated in BALB/C nude mice.
# Eighty-one (81) female BALB/C nude mice, were equally divided into 9 groups, which were purchased from SINO-BRITSH SIPPR/BK LAB. ANIMAL LTD., CO, with Certificate No.: SOCK (Shanghai) 2008-0016.
# The appropriate amount of each test compound was weighed, and successively added with 9% PEG400+0.5% tween 80+0.5% PVP+90% aqueous solution of 0.5% CMC.
# After an overnight fasting, 81 female BALB/C nude mice were equally divided into 9 groups; and administered the test compounds intragastrically at an administration volume of 0.2 mL/10 g.
# 81 female Balb/C nude mice were administered the test compounds intragastrically after an overnight fasting. Blood (0.1 mL) was taken (3 animals at each time point) at 0.5, 1.0, 2.0, 4.0, 6.0, 8.0, 11.0, and 24.0 h after administration. The samples were stored in heparinized test tubes, and centrifuged for 10 minutes at 3,500 rpm to separate the blood plasma. The plasma samples were stored at −20° C.
# The concentration of the prototype drug in the plasma and in the solution to be administered was determined by liquid chromatography tandem mass spectrometry (LC/MS MS).
Compound,IC50 (ER (estrogen receptor)) [nM],Vd/F [1] [L/kg],AUC [1] [ng·h/mL],CL/F [1] [mL/min/kg],half-life [1] [h],MRT [1] [h],Cmax [1] [ng/mL]
"CCc1ccc(N2C(C)Cc3cc(-c4cnn(C)c4)ccc3C2c2ccc(/C=C/C(=O)O)cc2)cc1 [Example 1, (E)-3-(4-((1R,3R/1S,3S)-2-(4-Ethylphenyl)-3-methyl-6-(1-methyl-1H-pyrazol-4-yl)-1,2,3,4-tetrahydroisoquinolin-1-yl)phenyl)acrylic acid]",2.11,0.865,14400,3.48,2.87,4.53,3440
"CCn1cc(-c2ccc3c(c2)CC(C)N(c2ccc(C(C)C)cc2)C3c2ccc(/C=C/C(=O)O)cc2)cn1 [Example 7, (E)-3-(4-((1R,3R/1S,3S)-6-(1-Ethyl-1H-pyrazol-4-yl)-2-(4-isopropylphenyl)-3-methyl-1,2,3,4-tetrahydroisoquinolin-1-yl)phenyl)acrylic acid]",1.79,1.23,12900,3.88,3.67,6.8,1280
"CCn1cc(-c2ccc3c(c2)C[C@@H](C)N(c2ccc(C(C)C)cc2)[C@@H]3c2ccc(/C=C/C(=O)O)cc2)cn1 [Example 8, (E)-3-(4-((1R,3R)-6-(1-Ethyl-1H-pyrazol-4-yl)-2-(4-isopropylphenyl)-3-methyl-1,2,3,4-tetrahydroisoquinolin-1-yl)phenyl)acrylic acid]",0.39,1.51,9380,5.33,3.27,5.26,1620
"C[C@@H]1Cc2cc(-c3cnn(C)c3)ccc2[C@@H](c2ccc(/C=C/C(=O)O)cc2)N1c1ccc(C2CC2)cc1 [Example 11, (E)-3-(4-((1R,3R)-2-(4-Cyclopropylphenyl)-3-methyl-6-(1-methyl-1H-pyrazol-4-yl)-1,2,3,4-tetrahydroisoquinolin-1-yl)phenyl)acrylic acid]",0.32,1.48,16400,3.06,5.58,7.9,1890
"CCn1cc(-c2ccc3c(c2)C[C@@H](C)N(c2ccc(C4CC4)cc2)[C@@H]3c2ccc(/C=C/C(=O)O)cc2)cn1 [Example 14, (E)-3-(4-((1R,3R)-2-(4-Cyclopropylphenyl)-6-(1-ethyl-1H-pyrazol-4-yl)-3-methyl-1,2,3,4-tetrahydroisoquinolin-1-yl)phenyl)acrylic acid]",0.25,1.26,14800,3.39,4.29,6.73,2480
"CC(C)c1ccc(N2[C@H](c3ccc(/C=C/C(=O)O)cc3)c3ccc(-c4cnn(C)c4)cc3C[C@H]2C)cc1 [Example 42, (E)-3-(4-((1R,3R)-2-(4-Isopropylphenyl)-3-methyl-6-(1-methyl-1H-pyrazol-4-yl)-1,2,3,4-tetrahydroisoquinolin-1-yl)phenyl)acrylic acid]",0.52,3.1,11200,4.46,8.04,9.21,1270

# From patent US10398689B2, “Benzopiperidine derivative, preparation method thereof and medical use thereof” (Jiangsu Hengrui Medicine Co., Ltd., priority 2015, dated 2019)
